Earlier results as cited in patent US20240170108A1, “METHOD AND SYSTEM FOR GENE EXPRESSION PREDICTION-BASED SCREENING OF DRUG-LIKE MOLECULES” (Tata Consultancy Services Limited, priority 2022, published 2024).

Test system: VCAP cell line
Settings: 10 μM concentration dose, 6 hrs of exposure

O=c1cc(-c2ccc(O)cc2)oc2cc(O[C@@H]3O[C@H](CO)[C@@H](O)[C@H](O)[C@H]3O)cc(O)c12 [Cosmosiin]
Characteristic Direction, APP (Gene ID 351) (gene APP): −0.0047 | Characteristic Direction, ARHGEF12 (Gene ID 23365) (gene ARHGEF12): −0.0376 | Characteristic Direction, ASAH1 (Gene ID 427) (gene ASAH1): −0.0172 | Characteristic Direction, ATF1 (Gene ID 466) (gene ATF1): −0.0167 | Characteristic Direction, BRCA1 (Gene ID 672) (gene BRCA1): −0.0305 | Characteristic Direction, CSNK1A1 (Gene ID 1452) (gene CSNK1A1): −0.0011 | Characteristic Direction, EED (Gene ID 8726) (gene EED): −0.0170 | Characteristic Direction, EGF (Gene ID 1950) (gene EGF): 0.0114 | Characteristic Direction, ETV1 (Gene ID 2115) (gene ETV1): −0.0108 | Characteristic Direction, FOXO3 (Gene ID 2309) (gene FOXO3): −0.0187 | Characteristic Direction, HLA-DMA (Gene ID 3108) (gene HLA-DMA): −0.0178 | Characteristic Direction, IL1B (Gene ID 3553) (gene IL1B): 0.0082 | Characteristic Direction, NFATC4 (Gene ID 4776) (gene NFATC4): −0.0087 | Characteristic Direction, NOS3 (Gene ID 4846) (gene NOS3): 0.0363 | Characteristic Direction, PSMD4 (Gene ID 5710) (gene PSMD4): −0.0161 | Characteristic Direction, PSME1 (Gene ID 5720) (gene PSME1): −0.0142 | Characteristic Direction, RALA (Gene ID 5898) (gene RALA): 0.0206 | Characteristic Direction, RHEB (Gene ID 6009) (gene RHEB): 0.0037 | Characteristic Direction, RHOA (Gene ID 387) (gene RHOA): −0.0166 | Characteristic Direction, SERPINE1 (Gene ID 5054) (gene SERPINE1): −0.0407 | Characteristic Direction, SOX2 (Gene ID 6657) (gene SOX2): 0.0276 | Characteristic Direction, TBP (Gene ID 6908) (gene TBP): −0.0084 | Characteristic Direction, TERT (Gene ID 7015) (gene TERT): 0.0054
